Measurements: PMC10945559, “Forgotten Natural Products: Semisynthetic Development of Blasticidin S As an Antibiotic Lead” (ACS Medicinal Chemistry Letters, 2024)
In brackets after ≈: the same amount, converted by molar mass. Read-outs that look alike come from different tables or passages of the source.

What was measured:
[1] = system: vancomycin-resistant Enterococcus (VRE); assay: Broth microdilution antibacterial assay; format: cell-based
Procedure, shortened: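 Compounds were prepared as 5.12 mg/mL stocks in 50% DMSO/water and serially diluted. A Bravo liquid handler transferred them into 96-well plates, which then received diluted VRE cultures in cation-adjusted Mueller-Hinton broth. After 24 h at 37 °C, OD600 was normalized to positive and vehicle controls to give MIC and IC50 values from two biological replicates run in duplicate.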

[2] = system: Staphylococcus aureus ΔNorA; assay: Broth microdilution antibacterial assay; format: cell-based
Procedure, shortened: (§1)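 MIC by broth microdilution in cation-adjusted Mueller-Hinton broth; inoculum OD600 0.004 from mid-log culture; compounds 256–2 μg/mL final; 37 °C, 16–18 h; OD600 read, normalized to positive and vehicle controls; MIC = lowest concentration giving >90% inhibition; two biological replicates in duplicate, reported as range.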

[3] = system: Acinetobacter baumannii ATCC 17978; assay: Broth microdilution antibacterial assay; format: cell-based
Procedure, shortened: as §1

Pseudomonas aeruginosa = assay: Broth microdilution antibacterial assay; format: cell-based
Procedure, shortened: as §1

[4] = system: Enterococcus faecalis ATCC 29212; assay: Broth microdilution antibacterial assay; format: cell-based
Procedure, shortened: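 Enterococcus faecalis ATCC 29212 was tested by broth microdilution in polypropylene 96-well flat-bottom plates. Compound stocks at 5.12 mg/mL in 50% DMSO/water were serially diluted, and 10 μL of each dilution was added to 190 μL of culture at OD600 0.004 in cation-adjusted Mueller-Hinton broth. Plates were incubated at 37 °C for 24 h, and OD600 was read to find the MIC.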

[5] = system: Klebsiella pneumoniae ATCC 29665; assay: Broth microdilution antibacterial assay; format: cell-based
Procedure, shortened: as §1

[6] = system: methicillin-resistant S. aureus (MRSA) ATCC 43300; assay: Broth microdilution antibacterial assay; format: cell-based, Staphylococcus aureus
Procedure, shortened: as §1

S. aureus 8810 = assay: Broth microdilution antibacterial assay; format: cell-based, Staphylococcus aureus
Procedure, shortened: as §1

[7] = set-up: method as in PMID 5842139; conditions: cited from earlier work
[8] = system: MRC-5 lung fibroblast cells; assay: in vitro; format: cell-based, human; conditions: average of SI (CC50/IC50) over the bacteria tested
Procedure, shortened: (§2)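 Human MRC-5 fibroblasts at 5000 cells/well exposed 24 h at 37 °C, 5% CO2 to compound dilutions (4–512 μg/mL; 256 and 512 μg/mL excluded owing to vehicle toxicity) in DMEM/10% FBS, with matched 50% DMSO vehicle dilutions as control. Viability by MTS-type reagent (4 h, A490), media-blank subtracted and normalized to vehicle; CC50 from triplicates.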

in vitro = format: cell-based, human; conditions: human; MRC-5 (lung fibroblast); 24 h; one biological replicate (n = 3); read-out: CC50 for human cells
Procedure, shortened: as §2

[9] = Acinetobacter baumannii, ATCC17978
[10] = Klebsiella pneumoniae, ATCC29665

Compound CN(CC[C@H](N)CC(=O)N[C@H]1C=C[C@H](n2ccc(N)nc2=O)O[C@@H]1C(=O)O)C(=N)N [Compound 1, blasticidin S] has an IC50 ([1]; Enterococcus, VRE) of 58 ± 9.4 µg/mL (≈ 137 µM), an MIC ([1]; Enterococcus, VRE, 24 h) of 256 µg/mL (≈ 606 µM) and an MIC ([1]; Enterococcus, VRE, read-out: Average Activity against VRE) of 256 µg/mL (≈ 606 µM). The “Selectivity index (CC50/IC50)” value ([1]; MRC-5 CC50 / VRE IC50) was 0.3, the “Selectivity index (CC50/IC50)” value ([2]; MRC-5 CC50 / S. aureus ΔNorA IC50) was 0.1 and the IC50 ([2]; Staphylococcus aureus) was 140 ± 8.7 µg/mL (≈ 331 µM). For the same compound, the MIC ([2]; Staphylococcus aureus) was > 256 µg/mL, the IC50 [3, 9] was 104 ± 25 µg/mL (≈ 246 µM) and the MIC [3, 9] was > 256 µg/mL. The “Selectivity index (CC50/IC50)” value ([3]; MRC-5 CC50 / A. baumannii IC50) was 0.2, the “Selectivity index (CC50/IC50)” value (Pseudomonas aeruginosa; MRC-5 CC50 / P. aeruginosa IC50) was 0.3 and the IC50 (Pseudomonas aeruginosa; Pseudomonas aeruginosa) was 61 ± 6 µg/mL (≈ 144 µM). The MIC (Pseudomonas aeruginosa; Pseudomonas aeruginosa) was 256 µg/mL (≈ 606 µM), the IC50 ([4]; Enterococcus faecalis, ATCC29212) was 26.3 ± 13 µg/mL (≈ 62.3 µM) and the MIC ([4]; Enterococcus faecalis, ATCC29212, 24 h) was 32 to 64 µg/mL (≈ 75.7 to 151 µM). The MIC ([4]; Enterococcus faecalis, ATCC29212, read-out: Average Activity against E. faecalis) was 64 µg/mL (≈ 151 µM), the “Selectivity index (CC50/IC50)” value ([4]; MRC-5 CC50 / E. faecalis IC50) was 0.8 and the IC50 [5, 10] was 42.3 ± 3.5 µg/mL (≈ 100 µM). For the same compound, the MIC [5, 10] was 128 µg/mL (≈ 303 µM), the “Selectivity index (CC50/IC50)” value ([5]; MRC-5 CC50 / K. pneumoniae IC50) was 0.5 and the “Selectivity index (CC50/IC50)” value ([6]; MRC-5 CC50 / MRSA IC50) was 0.3. The IC50 ([6]; Staphylococcus aureus) was 59.7 ± 7.8 µg/mL (≈ 141 µM), the MIC ([6]; Staphylococcus aureus) was 256 µg/mL (≈ 606 µM) and the MIC ([6]; Staphylococcus aureus, read-out: Average Activity against MRSA) was 256 µg/mL (≈ 606 µM). For the same compound, the “Selectivity index (CC50/IC50)” value (S. aureus 8810; MRC-5 CC50 / S. aureus IC50) was 0.6, the IC50 (S. aureus 8810; Staphylococcus aureus, 8810) was 33.2 ± 0.8 µg/mL (≈ 78.6 µM) and the MIC (S. aureus 8810; Staphylococcus aureus, 8810) was > 256 µg/mL. The MIC (S. aureus 8810; Staphylococcus aureus, 8810, read-out: Average Activity against S. aureus) was > 256 µg/mL, the pKa ([7]; primary amine) was 8.0 and the pKa ([7]; protonated guanidine) was > 12.5. It also gave an average selectivity index [8] of 0.4 and a CC50 at 24 h (in vitro) of 20.1 µg/mL (≈ 47.6 µM).
